Key:
[1] = Inhibition of Zika virus NS5-methyltransferase using GpppAC4 and [3H]AdoMet as substrate incubated for 30 mins by liquid scintillation counter analysis
Zika virus [2] = assay: Inhibition of Zika virus NS5-methyltransferase at 50 uM using GpppAC4 and [3H]AdoMet as substrate incubated for 30 mins by liquid scintillation counter analysis relative to control
[3] = Inhibition of Dengue virus 3 guanine-N7 methyltransferase assessed as inhibition constant; set-up: species or system dengue virus type 3
[4] = Inhibition of Dengue virus 3 nucleoside-2'O-methyltransferase assessed as inhibition constant; set-up: species or system dengue virus type 3
dengue virus type 2 [5] = assay: Inhibition of Dengue virus 2 NS5-methyltransferase at 50 uM by HTRF assay relative to control
[6] = target: T1, mRNA cap guanine-N(7) methyltransferase (Homo sapiens, UniProt O43148); assay: Inhibition of human RNMT at 50 uM using polyU as substrate incubated for 10 mins in presence of [3H] ATP and ATP by liquid scintillation counter analysis relative to control
[7] = Binding affinity to Zika virus NS5-methyltransferase assessed as dissociation constant by isothermal titration microcalorimetry method
Zika virus [8] = assay: Antiviral activity against Zika virus infected in African green monkey Vero cells assessed as reduction in viral plaques by plaque reduction assay; type: functional, organism-based
dengue virus type 1 = assay: Antiviral activity against Dengue virus 1 infected in asian tiger mosquito C6/36 cells assessed as reduction in virus replication by methyleneblue staining based analysis; type: functional, organism-based
dengue virus type 2 [9] = assay: Antiviral activity against Dengue virus 2 infected in asian tiger mosquito C6/36 cells assessed as reduction in virus replication by methyleneblue staining based analysis; type: functional, organism-based
dengue virus type 4 = assay: Antiviral activity against Dengue virus 4 infected in asian tiger mosquito C6/36 cells assessed as reduction in virus replication by methyleneblue staining based analysis; type: functional, organism-based
[10] = Cytotoxicity against hamster BHK-21 cells assessed as reduction in cell growth measured after 24 hrs by MTT assay; type: toxicity, cell-based, Mesocricetus auratus
[11] = Cytotoxicity against human A549 cells assessed as reduction in cell growth measured after 24 hrs by MTT assay; type: toxicity, cell-based
[12] = Cytotoxicity against human Huh-7 cells assessed as reduction in cell growth measured after 24 hrs by MTT assay; type: toxicity, cell-based
[13] = Cytotoxicity against HEK293T cells assessed as reduction in cell growth measured after 24 hrs by MTT assay; type: toxicity, cell-based, HEK-293T; details: human
[14] = Inhibition of Dengue virus NS5-methyltransferase using GpppAC4 and [3H]AdoMet as substrate incubated for 30 mins by liquid scintillation counter analysis
Zika virus [15] = assay: Antiviral activity against Zika virus; type: functional, organism-based
[16] = target: T1, mRNA cap guanine-N(7) methyltransferase; assay: Inhibition of human RNMT using GpppAC4 and [3H]AdoMet as substrate incubated for 30 mins by liquid scintillation counter analysis
[17] = target: T1, mRNA cap guanine-N(7) methyltransferase; assay: Inhibition of human RNMT assessed as inhibition constant

T1 sequence (O43148 whole entry): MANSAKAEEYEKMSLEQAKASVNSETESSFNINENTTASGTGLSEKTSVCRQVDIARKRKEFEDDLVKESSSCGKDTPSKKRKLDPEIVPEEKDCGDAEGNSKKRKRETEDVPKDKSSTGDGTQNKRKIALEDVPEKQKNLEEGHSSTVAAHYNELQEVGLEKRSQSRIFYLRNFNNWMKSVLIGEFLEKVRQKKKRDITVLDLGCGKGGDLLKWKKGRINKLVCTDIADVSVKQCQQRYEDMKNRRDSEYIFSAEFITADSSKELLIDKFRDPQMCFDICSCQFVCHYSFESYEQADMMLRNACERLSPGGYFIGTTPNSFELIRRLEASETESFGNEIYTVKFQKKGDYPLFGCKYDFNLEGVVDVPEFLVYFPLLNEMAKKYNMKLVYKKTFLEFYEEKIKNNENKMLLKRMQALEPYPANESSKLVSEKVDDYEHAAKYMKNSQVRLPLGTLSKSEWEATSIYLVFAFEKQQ

`O=C(Nc1ccc(I)cc1)Nc1ccc2c(c1)c1ccccc1n2Cc1ccccc1` gave an IC50 [1] of 23000 nM and an inhibition (Zika virus [2]) of 30%.
`N[C@H](CCSC[C@H]1O[C@@H](n2cnc3c(NC4CC4)ncnc32)[C@H](O)[C@@H]1O)C(=O)O` gave a Ki [3] of 770 nM and a Ki [4] of 150 nM.
For `Cc1cc(/C=C/c2ccc3cc(N(C)C)ccc3[n+]2C)c(C)n1-c1ccccc1`, the inhibition (dengue virus type 2 [5]) was 97.8% and the inhibition [6] was 98.6%.
`N[C@H](CCSC[C@H]1O[C@@H](n2cnc3c(NCc4cccc(Cl)c4)ncnc32)[C@H](O)[C@@H]1O)C(=O)O` showed a Ki [3] of 820 nM and a Ki [4] of 170 nM.
With `Nc1ncnc2c1ncn2[C@@H]1O[C@H](CN(CCC(N)C(=O)O)Cc2ccc(F)cc2)[C@@H](O)[C@H]1O` (stereo partly specified) the Kd [7] was 24300 nM.
With `COCCCNC(=O)c1ccc(Cn2c(=O)c3ccccc3n(CC(=O)NCCc3ccc(OC)c(OC)c3)c2=O)cc1` the EC50 (Zika virus [8]) was 12500 nM.
For `CCC(/C(C)=C/c1cc(OC)c(OC)cc1OC)c1cc(OC)c(OC)cc1OC` (stereo unspecified), the EC50 (dengue virus type 1) was 4270 nM, the EC50 (dengue virus type 2 [9]) was 4500 nM and the EC50 (dengue virus type 4) was 4540 nM. The CC50 at 24 h [10] was over 80000 nM, the CC50 at 24 h [11] was over 80000 nM and the CC50 at 24 h [12] was over 80000 nM. For the same molecule, the CC50 at 24 h [13] was over 80000 nM.
`COc1ccc(NC(=O)Nc2ccc3c(c2)c2ccccc2n3CCc2ccccc2)c(OC)c1` gave an IC50 [1] of 23000 nM and an inhibition (Zika virus [2]) of 30%.
With `COc1ccc(NC(=O)Nc2ccc3c(c2)c2ccccc2n3Cc2ccccc2)c(OC)c1` the IC50 [1] was 23000 nM and the inhibition (Zika virus [2]) was 30%.
With `N[C@H](CCSC[C@H]1O[C@@H](n2cnc3c(NCc4cccc(I)c4)ncnc32)[C@H](O)[C@@H]1O)C(=O)O` the Ki [3] was 770 nM and the Ki [4] was 150 nM.
With `Cc1ccc2c(c1)c(=O)c(C(=O)c1ccccc1)cn2CC(=O)Nc1ccccc1C` the EC50 (Zika virus [8]) was 17500 nM.
`CCn1c2ccccc2c2cc(NC(=O)Nc3ccc([N+](=O)[O-])cc3C)ccc21` showed an IC50 [14] of 38000 nM, an IC50 [1] of 35000 nM and an EC50 (Zika virus [15]) of over 3990 nM. The inhibition (Zika virus [2]) was 30%.
`C[S+](CC[C@H](N)C(=O)[O-])C[C@H]1O[C@@H](n2cnc3c(N)ncnc32)[C@H](O)[C@@H]1O` (stereo partly specified) [ADEMETIONINE] gave a Kd [7] of 2580 nM.
`CNc1ncnc2c1ncn2[C@@H]1O[C@H](CSCC[C@@H](N)C(=O)O)[C@@H](O)[C@H]1O` showed a Ki [3] of 770 nM and a Ki [4] of 150 nM.
In the case of `Nc1ncnc2c1ncn2[C@@H]1O[C@H](C[C@@H](N)CC[C@H](N)C(=O)O)[C@@H](O)[C@H]1O` [SINEFUNGIN], the IC50 [14] is reported as 1180 nM and the IC50 [16] is reported as 5300 nM.
`Cc1ccccc1CNc1ncnc2c1ncn2[C@@H]1O[C@H](CSCC[C@@H](N)C(=O)O)[C@@H](O)[C@H]1O` gave a Ki [3] of 770 nM and a Ki [4] of 150 nM.
Molecule `Nc1ncnc2c1ncn2[C@@H]1O[C@H](CSCC[C@H](N)C(=O)O)[C@@H](O)[C@H]1O` [S-ADENOSYLHOMOCYSTEINE] has a Ki [3] of 3190 nM, a Ki [4] of 570 nM and a Ki [17] of over 50000 nM.
`N[C@H](CCSC[C@H]1O[C@@H](n2cnc3c(NCc4ccccc4)ncnc32)[C@H](O)[C@@H]1O)C(=O)O` showed a Ki [3] of 770 nM and a Ki [4] of 150 nM.
`N[C@H](CCSC[C@H]1O[C@@H](n2cnc3c(NCc4cccc(F)c4)ncnc32)[C@H](O)[C@@H]1O)C(=O)O` showed a Ki [3] of 770 nM and a Ki [4] of 150 nM.
For `CCCCCCCCCCCCCCCC[N+](C)(C)CCN(Cc1ccc(OC)cc1)c1ncccn1`, the inhibition (dengue virus type 2 [5]) was 98.6% and the inhibition [6] was 96%.
With `N[C@H](CCSC[C@H]1O[C@@H](n2cnc3c(Nc4ccccc4)ncnc32)[C@H](O)[C@@H]1O)C(=O)O` the Ki [3] was 770 nM and the Ki [4] was 150 nM.
With `N[C@H](CCSC[C@H]1O[C@@H](n2cnc3c(NCCc4ccccc4)ncnc32)[C@H](O)[C@@H]1O)C(=O)O` the Ki [3] was 770 nM and the Ki [4] was 150 nM.
In the case of `N[C@H](CCSC[C@H]1O[C@@H](n2cnc3c(NCc4cccc(Br)c4)ncnc32)[C@H](O)[C@@H]1O)C(=O)O`, the Ki [3] is reported as 770 nM and the Ki [4] is reported as 150 nM.
Work on `O=C1c2cccc3cccc(c23)C(=O)N1CCc1ccc(S(=O)(=O)N2CCN(c3ccccc3)CC2)cc1` yielded an EC50 (Zika virus [8]) of 4800 nM.
In the case of `Cc1cccc(CNc2ncnc3c2ncn3[C@@H]2O[C@H](CSCC[C@@H](N)C(=O)O)[C@@H](O)[C@H]2O)c1`, the Ki [3] is reported as 770 nM and the Ki [4] is reported as 150 nM.
Molecule `Cc1ccnc(NS(=O)(=O)c2ccc(NC(=O)c3ccc(S(=O)(=O)N4CCc5ccccc5C4)cc3)cc2)n1` has an EC50 (Zika virus [8]) of 17600 nM.
Molecule `Cc1ccc(CNc2ncnc3c2ncn3[C@@H]2O[C@H](CSCC[C@@H](N)C(=O)O)[C@@H](O)[C@H]2O)cc1` has a Ki [3] of 770 nM and a Ki [4] of 150 nM.

Source: ChEMBL document CHEMBL5360549, “Recent advances in the development of methyltransferase (MTase) inhibitors against (re)emerging arboviruses diseases dengue and Zika” (Eur J Med Chem, 2023)
